Source: paper PMC10652874, “Investigation into the mechanism of action of the antimicrobial peptide epilancin 15X” (Frontiers in Microbiology, 2023)

Tests used:
Micrococcus flavus = details: ref Wang et al., 2023; cited from earlier work
From the text: (§1) Recent studies have shown that epilancin 15X activity varies depending on the indicator strain, with bacteriostatic activity against Staphylococcus simulans and Micrococcus flavus but bactericidal activity against Bacillus megaterium ([Wang et al., 2023]).

Staphylococcus simulans = details: ref Wang et al., 2023; cited from earlier work
From the text: as §1

Bacillus megaterium = details: ref Wang et al., 2023; cited from earlier work
From the text: as §1

S. carnosus TM300 = assay: Agar diffusion bioactivity assay with lipids in flanking wells; type: cell-based, Staphylococcus carnosus; details: S. carnosus TM300 on BHI agar, overnight
Protocol: For agar diffusion antimicrobial activity assays, the autoclaved 1.5% agar was prepared in the appropriate medium and cooled in a 40°C water bath for 15 min. A total of 50 μL overnight culture of the sensitive strain was added to the agar and kept in the water bath. A total of 25 mL seeded agar was poured into a sterile OmniTray (Nunc) and allowed to solidify at room temperature for 30 min. An additional 35 mL of seeded agar was poured over the lower solidified agar layer. A sterile 96-well PCR plate was placed in the molten agar upper layer, and the agar was allowed to solidify at 25°C for 30 min. After sufficient solidification, the 96-well PCR plate was removed. Then 20 μL volume of each peptide was dispensed into the wells. Plates were left at 25°C for 30 min until the wells were dried, and the plates were incubated at 37°C overnight. The antibacterial activity was determined by the presence or absence of growth inhibition.
Figure S5. (A) Zones of growt h inhibition of epilancin 15X a nd nisin A against S. carnosus TM30 0 grown on BHI agar plates. The indicated amounts of antibiotics were placed in the well shown in the center of the zone of inhibition. […]

Epilancin 15X
type of antimicrobial activity (Micrococcus flavus): bacteriostatic | type of antimicrobial activity (Staphylococcus simulans): bacteriostatic | type of antimicrobial activity (Bacillus megaterium): bactericidal | antagonism of bioactivity (zone of growth inhibition) by purified S. aureus LTA (S. carnosus TM300): antagonized
